Test results taken from the supplement of paper PMC10627819.

What was measured:
S. pneumoniae D39V [1] = assay: fitness (endpoint OD595 vs no drug) (fraction); higher = more growth
Method in brief: (§1)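 Bacterial fitness was scored as optical density at the stationary-phase transition relative to the robust mean of no-drug control wells. Scores are capped at 1. The growth data were OD595 readings every 30 min for 14 h at 37 °C, background-subtracted against the first reading, from 384-well plates inoculated at OD595 0.01 in TSB, LB Lennox or CY.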

B. subtilis 168 [2] = assay: as above
Method in brief: as §1

S. pneumoniae D39V [3] = assay: Bliss interaction score (quartile over a dose matrix) (fitness difference); higher = more antagonism (negative = synergy)
Method in brief: (§2)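 The Bliss score is observed fitness minus expected fitness, where the expected value is the product of single-drug fitness values inferred from combination data. Fitness is OD595 at entry into stationary phase normalised to the plate's robust no-drug mean and capped at 1. Scores are reported as quartiles spanning technical, biological and donor/recipient replicates.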

S. aureus DSM 20231 = assay: as above
Method in brief: as §2

B. subtilis 168 [4] = assay: as above
Method in brief: as §2

S. aureus Newman = assay: as above
Method in brief: as §2
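Wherever Bliss interaction score (quartile over a dose matrix) is given: first quartile when negative (synergy) and third quartile when positive (antagonism).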
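Wherever fitness (endpoint OD595 vs no drug) is given: OD595 on entry to stationary phase over no-drug wells; at most 1.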

C[C@H]1c2cccc(O)c2C(=O)C2=C(O)[C@]3(O)C(=O)C(C(N)=O)=C(O)[C@@H](N(C)C)[C@@H]3[C@@H](O)[C@@H]21 [Doxycycline] + CCC(C)C1C(=O)NC(=C)C(=O)NC(C(=O)NC(CSCC(C(=O)N1)NC(=O)/C(=C/C)/NC(=O)C(C(C)CC)N)C(=O)NC2C(SCC(NC(=O)CNC(=O)C3CCCN3C2=O)C(=O)NC(CCCCN)C(=O)NC4C(SCC(NC(=O)CNC(=O)C(NC(=O)C(NC(=O)C(NC(=O)CNC4=O)C)CC(C)C)CCSC)C(=O)NC(CC(=O)N)C(=O)NC(CCSC)C(=O)NC(CCCCN)C(=O)NC5C(SCC6C(=O)NC(C(=O)NC(CSC(C(C(=O)N6)NC(=O)C(NC5=O)C)C)C(=O)NC(CO)C(=O)NC(C(C)CC)C(=O)NC(CC7=CN=CN7)C(=O)NC(C(C)C)C(=O)NC(=C)C(=O)NC(CCCCN)C(=O)O)CC8=CN=CN8)C)C)C)CC(C)C [Nisin]
fitness, one replicate, main component drawn
Conditions	partner 1.25 µg/mL	partner 1.6 µg/mL	partner 2.5 µg/mL	partner 3.2 µg/mL	partner 4 µg/mL	partner 5 µg/mL	partner 6.4 µg/mL	partner 8 µg/mL	partner 16 µg/mL
B. subtilis 168 [2], first compound 0.02 µg/mL	0.915	0.287	0.481	0.0387	0.0411	0.0601	0.0419	0.0354	0.0177
B. subtilis 168 [2], first compound 0.04 µg/mL	0.935	0.358	0.464	0.0224	0.137	0.0251	0.035	0.0271	0.024
B. subtilis 168 [2], first compound 0.08 µg/mL	0.594	0.0173	0.165	0.0251	0.0169	0.0318	0.0245	0.0228	0.0199
S. pneumoniae D39V [1], first compound 0.003875 µg/mL	–	0.0092	–	0	–	–	0.0176	–	–
S. pneumoniae D39V [1], first compound 0.00775 µg/mL	–	0.0172	–	0	–	–	0.0097	–	–
S. pneumoniae D39V [1], first compound 0.031 µg/mL	–	0.222	–	0.0345	–	–	0	–	–
S. pneumoniae D39V [1], first compound 0.062 µg/mL	–	0.0897	–	0.0057	–	–	0.0088	–	–

main component drawn
Conditions	fitness
B. subtilis 168 [2], first compound 0.02 µg/mL, partner 0.5 µg/mL	0.836
B. subtilis 168 [2], first compound 0.02 µg/mL, partner 1 µg/mL	0.809
B. subtilis 168 [2], first compound 0.02 µg/mL, partner 2 µg/mL	0.476
B. subtilis 168 [2], first compound 0.04 µg/mL, partner 0.5 µg/mL	0.755
B. subtilis 168 [2], first compound 0.04 µg/mL, partner 1 µg/mL	0.741
B. subtilis 168 [2], first compound 0.04 µg/mL, partner 2 µg/mL	0.403
B. subtilis 168 [2], first compound 0.08 µg/mL, partner 0.5 µg/mL	0.61
B. subtilis 168 [2], first compound 0.08 µg/mL, partner 1 µg/mL	0.541
B. subtilis 168 [2], first compound 0.08 µg/mL, partner 2 µg/mL	0.0887
S. pneumoniae D39V [1], first compound 0.0155 µg/mL, partner 0.4275 µg/mL	0.935
S. pneumoniae D39V [1], first compound 0.0155 µg/mL, partner 0.855 µg/mL	0.803
S. pneumoniae D39V [1], first compound 0.0155 µg/mL, partner 1.6 µg/mL	0.192
S. pneumoniae D39V [1], first compound 0.0155 µg/mL, partner 1.71 µg/mL	0.0645
S. pneumoniae D39V [1], first compound 0.0155 µg/mL, partner 3.2 µg/mL	0.017
S. pneumoniae D39V [1], first compound 0.0155 µg/mL, partner 6.4 µg/mL	0.0088
S. pneumoniae D39V [1], first compound 0.031 µg/mL, partner 0.4275 µg/mL	0.89
S. pneumoniae D39V [1], first compound 0.031 µg/mL, partner 0.855 µg/mL	0.596
S. pneumoniae D39V [1], first compound 0.031 µg/mL, partner 1.71 µg/mL	0.0413
S. pneumoniae D39V [1], first compound 0.062 µg/mL, partner 0.4275 µg/mL	0.846
S. pneumoniae D39V [1], first compound 0.062 µg/mL, partner 1.71 µg/mL	0.0711

main component drawn
Conditions	Bliss interaction score
B. subtilis 168 [4]	0.0503
S. aureus DSM 20231	-0.0392
S. aureus Newman	0.0561
S. pneumoniae D39V [3]	-0.161

O=C(O)c1cn(C2CC2)c2cc(N3CCNCC3)c(F)cc2c1=O [Ciprofloxacin] + CCC(C)C1C(=O)NC(=C)C(=O)NC(C(=O)NC(CSCC(C(=O)N1)NC(=O)/C(=C/C)/NC(=O)C(C(C)CC)N)C(=O)NC2C(SCC(NC(=O)CNC(=O)C3CCCN3C2=O)C(=O)NC(CCCCN)C(=O)NC4C(SCC(NC(=O)CNC(=O)C(NC(=O)C(NC(=O)C(NC(=O)CNC4=O)C)CC(C)C)CCSC)C(=O)NC(CC(=O)N)C(=O)NC(CCSC)C(=O)NC(CCCCN)C(=O)NC5C(SCC6C(=O)NC(C(=O)NC(CSC(C(C(=O)N6)NC(=O)C(NC5=O)C)C)C(=O)NC(CO)C(=O)NC(C(C)CC)C(=O)NC(CC7=CN=CN7)C(=O)NC(C(C)C)C(=O)NC(=C)C(=O)NC(CCCCN)C(=O)O)CC8=CN=CN8)C)C)C)CC(C)C [Nisin]
main component drawn
Conditions	fitness
B. subtilis 168 [2], first compound 0.0098 µg/mL, partner 0.5 µg/mL	0.838
B. subtilis 168 [2], first compound 0.0098 µg/mL, partner 1 µg/mL	0.814
B. subtilis 168 [2], first compound 0.0098 µg/mL, partner 2 µg/mL	0.568
B. subtilis 168 [2], first compound 0.0195 µg/mL, partner 0.5 µg/mL	0.702
B. subtilis 168 [2], first compound 0.0195 µg/mL, partner 1 µg/mL	0.591
B. subtilis 168 [2], first compound 0.0195 µg/mL, partner 2 µg/mL	0.427
B. subtilis 168 [2], first compound 0.039 µg/mL, partner 0.5 µg/mL	0.276
B. subtilis 168 [2], first compound 0.039 µg/mL, partner 1 µg/mL	0.129
B. subtilis 168 [2], first compound 0.039 µg/mL, partner 2 µg/mL	0.031
S. pneumoniae D39V [1], first compound 0.125 µg/mL, partner 0.4275 µg/mL	0.954
S. pneumoniae D39V [1], first compound 0.125 µg/mL, partner 0.855 µg/mL	0.825
S. pneumoniae D39V [1], first compound 0.125 µg/mL, partner 1.6 µg/mL	0.0088
S. pneumoniae D39V [1], first compound 0.125 µg/mL, partner 1.71 µg/mL	0.0552
S. pneumoniae D39V [1], first compound 0.125 µg/mL, partner 3.2 µg/mL	0.0108
S. pneumoniae D39V [1], first compound 0.125 µg/mL, partner 6.4 µg/mL	0.005
S. pneumoniae D39V [1], first compound 0.25 µg/mL, partner 0.4275 µg/mL	0.883
S. pneumoniae D39V [1], first compound 0.25 µg/mL, partner 0.855 µg/mL	0.398
S. pneumoniae D39V [1], first compound 0.25 µg/mL, partner 1.71 µg/mL	0.0414
S. pneumoniae D39V [1], first compound 0.5 µg/mL, partner 0.4275 µg/mL	0.614
S. pneumoniae D39V [1], first compound 0.5 µg/mL, partner 0.855 µg/mL	0.173
S. pneumoniae D39V [1], first compound 0.5 µg/mL, partner 1.6 µg/mL	0.0116
S. pneumoniae D39V [1], first compound 0.5 µg/mL, partner 1.71 µg/mL	0.0558
S. pneumoniae D39V [1], first compound 0.5 µg/mL, partner 3.2 µg/mL	0.043

fitness, one replicate, main component drawn
Conditions	partner 1.25 µg/mL	partner 1.6 µg/mL	partner 2.5 µg/mL	partner 3.2 µg/mL	partner 4 µg/mL	partner 5 µg/mL	partner 6.4 µg/mL	partner 8 µg/mL	partner 16 µg/mL
B. subtilis 168 [2], first compound 0.0098 µg/mL	0.919	0.726	0.577	0.0245	0.368	0.0657	0.0606	0.0414	0.0186
B. subtilis 168 [2], first compound 0.0195 µg/mL	0.795	0.575	0.381	0.0411	0.223	0.035	0.0488	0.0139	0.0115
B. subtilis 168 [2], first compound 0.039 µg/mL	0.256	0.0309	0.0565	0.0347	0.0357	0.061	0.0335	0.0446	0.0305
S. pneumoniae D39V [1], first compound 0.25 µg/mL	–	0	–	0	–	–	0	–	–

main component drawn
Conditions	Bliss interaction score
B. subtilis 168 [4]	-0.0496
S. aureus DSM 20231	-0.123
S. aureus Newman	-0.059
S. pneumoniae D39V [3]	-0.0601

C[C@H]1c2cccc(O)c2C(=O)C2=C(O)[C@]3(O)C(=O)C(C(N)=O)=C(O)[C@@H](N(C)C)[C@@H]3[C@@H](O)[C@@H]21 [Doxycycline] + O=C(O[C@@H]1Cc2c(O)cc(O)cc2O[C@@H]1c1cc(O)c(O)c(O)c1)c1cc(O)c(O)c(O)c1 [EGCG]
fitness, S. pneumoniae D39V [1], one replicate
Conditions	partner 12.5 µg/mL	partner 25 µg/mL	partner 50 µg/mL
first compound 0.003875 µg/mL	0.954	0.985	0.995
first compound 0.00775 µg/mL	0.919	0.966	0.964

Conditions	fitness
B. subtilis 168 [2], first compound 0.02 µg/mL, partner 6.25 µg/mL	0.901
B. subtilis 168 [2], first compound 0.04 µg/mL, partner 6.25 µg/mL	0.767
B. subtilis 168 [2], first compound 0.08 µg/mL, partner 6.25 µg/mL	0.53
B. subtilis 168 [2], first compound 0.08 µg/mL, partner 12.5 µg/mL	0.315
B. subtilis 168 [2], first compound 0.08 µg/mL, partner 25 µg/mL	0.0902
S. pneumoniae D39V [1], first compound 0.0155 µg/mL, partner 12.5 µg/mL	0.85
S. pneumoniae D39V [1], first compound 0.0155 µg/mL, partner 25 µg/mL	0.864
S. pneumoniae D39V [1], first compound 0.0155 µg/mL, partner 50 µg/mL	0.881
S. pneumoniae D39V [1], first compound 0.031 µg/mL, partner 25 µg/mL	0.755

Conditions	Bliss interaction score
B. subtilis 168 [4]	0.147
S. aureus DSM 20231	0.0387
S. aureus Newman	0.088
S. pneumoniae D39V [3]	-0.0707
